US20240174684A1, “INHIBITORS OF cGAS ACTIVITY AS THERAPEUTIC AGENTS” (BELLBROOK LABS, LLC, priority 2021, published 2024)
≈ marks a conversion by molar mass, not a printed value. Like-named read-outs stand apart in the source and are kept apart here.

Experiments:
cGAS [1] = molecular target: T1, cGAS (Homo sapiens, UniProt Q8N884); assay: Transcreener cGAS enzymatic assay (FP); assay type: biochemical
How it was run: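 Human cGAS (30 nm) inhibition, 60 min reactions, FP read-out, standard conditions 100 μM ATP and GTP plus 62.5 nM bp ISD. Also run at 1 mM ATP and GTP (physiological), with 200 μM MnCl2, and with mouse cGAS under standard conditions; IC50 reported.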

cGAS [2] = molecular target: T1, cGAS; assay: Cellular thermal shift assay (CETSA) in THP-1 cells; assay type: cell-based; details: heat treatment 51.5 °C
Method: Panel A is an image of a western blot of the stabilization measure; panel B is a bar graph of the stabilization measure. Heat treatment was conducted at 51.5 ° C.
(§1) CETSA was also used to confirm that the compounds are binding to cGAS in cells; THP-1 cells are used for this analysis. Compounds were tested in dose response mode by incubating with cells for 1.5 hours at 37° C., followed by pelleting and re-suspending in PBS, heating to 51.5° C. for 3 min and cooling to room temp. Cells were then lysed, debris, including denatured cGAS, was pelleted and the supernatant was analyzed for soluble cGAS by Western Blot using anti-cGAS primary Ab (Cell Signaling). Band intensity was analyzed using Image J software. Stimulation with cGAMP directly activates STING, circumventing cGAS; this was used to determine if compounds had effects on downstream components of cGAS/STING signaling. The IFN-6 ELISA was used as the primary measure of cellular potency and selectivity (Table 3) and used the reporter gene assays for assessing off-target activity with other pattern recognition receptors.

TLR4 pathway = assay: Reporter gene assay NFKB (TLR4); assay type: cell-based; details: concentrations as high as 100 μM
Method: as §1
(§2) The reporter gene assays were used to assess off-target activity with IRF30Luc (RIG-1) or NFKB (TLR4); CellTiter Glo (ATP levels) and Presto Blue (reducing equivalents) were used to assess cytotoxicity; all assays were performed in dose response mode. […] The inventors recently began using human PBMCs to assess cellular potency in a more physiologically relevant context.

[3] = Metabolic stability in mouse hepatocytes; assay type: in vitro ADME; details: read-out: Mouse MS Stability t1/2
Method: (§3) ADME studies: Compound A and the compounds of the disclosure were tested for aqueous solubility (KSOL), metabolic stability (human and mouse […]) and permeability (Caco-2 and/or MDR1-MDCK cells) to provide an initial indication of oral bioavailability.
(§4) The favorable physicochemical properties are reflected in promising results in in vitro ADME tests. […] Metabolic stability, which was routinely measured with mouse and human hepatocytes, is outstanding, with t, greater than 2 hours for all of the compounds of the disclosure in which it has been measured. Cell permeability was measured using MDCK cells expressing human MDR1 (P-glycoprotein) to assess passive permeability as well as active transport out of the cell. […] Numerous compounds in Table 1 meet these permeability criteria, which is consistent with their design for TPSA <140 Å^2 and increased lipophilicity.
(§5) The MDCK-MDR1 permeability A ->B is shown in Table 2 below, where A represents 5-10 cm/s×10^−6; B represents 1-5 cm/s×10^−6; and C represents <1 cm/ss×10^−6. The metabolic stability half time, in both mouse and human hepatocytes, is also shown in Table 2 below, where A′ represents 100-200 minutes; B′ represents 200-300 minutes; and C′ represents >300 minutes.

RIG-1 signaling = assay: Reporter gene assay IRF30Luc (RIG-1); assay type: cell-based; details: concentrations as high as 100 μM
Method: as §1, §2

[4] = Kinetic aqueous solubility (KSOL) in PBS, pH 7.4; assay type: physicochemical; details: aqueous buffer, kinetic from dmso stock
Method: as §3, §4

[5] = system: isolated Luc reporter enzyme; assay: Isolated Luc reporter enzyme inhibition; assay type: biochemical; details: at 80 μM
[6] = molecular target: isolated SEAP reporter enzyme (Homo sapiens, UniProt P05187); assay: Isolated SEAP reporter enzyme inhibition; assay type: biochemical
isolated SEAP reporter enzyme, sequence (P05187 23-511 limits assumed): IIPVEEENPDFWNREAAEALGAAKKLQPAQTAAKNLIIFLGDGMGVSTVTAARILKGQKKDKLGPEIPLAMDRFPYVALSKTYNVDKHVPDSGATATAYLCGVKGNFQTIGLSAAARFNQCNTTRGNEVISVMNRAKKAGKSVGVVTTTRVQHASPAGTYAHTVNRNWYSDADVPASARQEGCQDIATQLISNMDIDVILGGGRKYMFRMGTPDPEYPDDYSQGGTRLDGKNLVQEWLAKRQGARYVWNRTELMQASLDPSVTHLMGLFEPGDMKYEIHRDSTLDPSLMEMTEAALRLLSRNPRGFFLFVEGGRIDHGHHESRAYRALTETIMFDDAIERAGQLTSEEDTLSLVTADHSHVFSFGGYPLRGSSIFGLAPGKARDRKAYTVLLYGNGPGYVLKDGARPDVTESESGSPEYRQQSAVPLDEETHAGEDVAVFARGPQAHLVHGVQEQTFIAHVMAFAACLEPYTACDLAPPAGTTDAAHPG

MDR1 (P-glycoprotein) = assay: MDCK-MDR1 permeability A→B; assay type: in vitro ADME, Canine; details: dog; MDCK cells expressing human MDR1, A→B; read-out: MDCK-MDR Permeability A→B
How it was run: (§6)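 Permeability measured apical-to-basolateral in MDCK cells expressing human MDR1, reported as binned ranges in cm/s×10^−6. Metabolic stability determined as half-life in mouse and human hepatocytes, reported as binned ranges in minutes.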

mouse cGAS = mouse cGAS (Mus musculus, UniProt Q8C6L5); assay: Transcreener cGAS enzymatic assay with mouse cGAS; assay type: biochemical; details: standard conditions, read-out: IC50 with mcGAS
mouse cGAS, sequence (Q8C6L5 whole entry): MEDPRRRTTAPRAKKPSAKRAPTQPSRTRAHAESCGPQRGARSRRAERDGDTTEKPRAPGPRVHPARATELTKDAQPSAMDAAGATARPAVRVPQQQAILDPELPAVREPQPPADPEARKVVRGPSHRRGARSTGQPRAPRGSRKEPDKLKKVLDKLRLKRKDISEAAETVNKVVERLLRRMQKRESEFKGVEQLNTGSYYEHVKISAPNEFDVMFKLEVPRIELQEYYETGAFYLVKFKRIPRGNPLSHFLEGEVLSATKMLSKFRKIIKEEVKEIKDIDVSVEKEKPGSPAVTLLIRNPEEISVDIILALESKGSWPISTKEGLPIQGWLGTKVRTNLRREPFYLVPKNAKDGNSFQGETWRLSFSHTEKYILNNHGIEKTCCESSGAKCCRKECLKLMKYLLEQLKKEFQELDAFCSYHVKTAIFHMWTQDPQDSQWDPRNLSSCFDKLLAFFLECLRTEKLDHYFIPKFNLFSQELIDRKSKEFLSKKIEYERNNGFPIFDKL
Method: Structural, biochemical and biophysical analysis and selectivity profiling: Potency and MOA studies, including Mn^2+ sensitivity, were performed using the Transcreener cGAS enzymatic assay, which is manufactured at BellBrook Labs (Fitchburg, Wisconsin, USA). This homogenous cGAS enzymatic assay was developed with fluorescence polarization (FP) and time-resolved Forster resonance energy transfer (TR-FRET) readouts, as described in International Patent Publication WO 2020/142729, incorporated by reference herein in its entirety. Plates are read on a PHERAstar FSX multimode reader (BMG). The compounds of the disclosure were tested for inhibition of cGAS ([…]) using this cGAS enzymatic assay under standard conditions (100 μM ATP and GTP, 62.5 nM bp ISD, 60 minute reactions), high ATP and GTP (1 mM) to mimic physiological conditions, in the presence of 200 μM MnCl2, and with mouse cGAS under standard conditions.
Potency with mcGAS is important for vivo efficacy studies and represents a challenge for lead development because mcGAS shares only 57% amino acid identity with human enzyme and there are significant functional differences.

[7] = system: IFNβ production in THP-1 cells; assay: IFNβ ELISA in THP-1 cells; assay type: cell-based, human; details: Homo sapiens; THP-1 cells
How it was run: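 THP-1 cells stimulated with dsDNA or cGAMP (STING activation bypassing cGAS) in the presence of compound; IFNβ secreted into medium quantified by ELISA. IC50 values reported in potency bins.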

[8] = Cytotoxicity, CellTiter Glo (ATP levels) and Presto Blue (reducing equivalents); assay type: cell-based; details: concentrations as high as 100 μM
Method: as §2

[9] = system: MDCK cells expressing human MDR1 (P-glycoprotein); assay: MDCK-MDR1 permeability A→B; assay type: in vitro ADME, Canine
How it was run: as §6

[10] = Metabolic stability in mouse liver microsomes; assay type: in vitro ADME; details: read-out: Mouse MS Stability t1/2
Method: as §3, §5

[11] = Metabolic stability in human liver microsomes; assay type: in vitro ADME; details: read-out: Human MS Stability t1/2
Method: as §3, §5

[12] = system: IFN-β production in PBMCs; assay: IFNβ ELISA in human primary PBMCs; assay type: cell-based; details: PBMC
From the text: Cellular assays: The human monocyte cell line THP-1 and human primary PBMCs were used to evaluate the cellular activity of compounds with good biochemical potency. These cells produce a robust cGAS/STING-dependent type I IFN response when stimulated with dsDNA and other pathogen-associated molecular patterns, which was detected using a standard ELISA for IFNβ (R&D Systems). The TBK1 inhibitor, BX-795, which acts downstream of cGAS/STING, was used as a probe.
The ICso values for IFNB ELISA stimulated with THP-1, PBMC, DNA, and cGAMP were determined for several exemplary compounds of the invention, and are provided in Table 3 where A represents <1 μM; B represents 1-2.5 μM; C represents 2.5-10 μM; D represents 10-20 μM; and E represents >20 μM.
as §2

[13] = Metabolic stability in human hepatocytes; assay type: in vitro ADME; details: read-out: Human MS Stability t1/2
Method: as §3, §4, §5

[14] = high ATP and GTP (1 mM) to mimic physiological conditions, read-out: IC50 FP Physiological
[15] = standard conditions: 100 μM ATP and GTP, 62.5 nM bp ISD, 60 minute reactions, read-out: IC50 FP Standard

T1 sequence (Q8N884 whole entry): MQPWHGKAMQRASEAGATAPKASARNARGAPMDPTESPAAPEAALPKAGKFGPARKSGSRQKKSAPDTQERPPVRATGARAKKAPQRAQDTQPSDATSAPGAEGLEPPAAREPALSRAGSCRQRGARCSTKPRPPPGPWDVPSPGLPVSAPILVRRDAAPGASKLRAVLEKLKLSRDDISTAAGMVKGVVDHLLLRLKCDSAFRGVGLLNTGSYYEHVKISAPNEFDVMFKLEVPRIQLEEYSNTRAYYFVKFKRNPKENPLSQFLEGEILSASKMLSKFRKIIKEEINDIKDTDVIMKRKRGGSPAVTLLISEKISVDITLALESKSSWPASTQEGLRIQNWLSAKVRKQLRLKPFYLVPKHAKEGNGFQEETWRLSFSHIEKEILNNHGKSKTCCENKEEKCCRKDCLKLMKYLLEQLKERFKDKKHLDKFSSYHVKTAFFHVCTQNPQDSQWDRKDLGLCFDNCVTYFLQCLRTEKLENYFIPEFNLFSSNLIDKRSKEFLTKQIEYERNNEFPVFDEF

IC50 (cGAS [1]; [14]) | IC50 (cGAS [1]; [15]) | Stabilization of cGAS in cells (CETSA) (cGAS [2]) | half-life [3] | solubility kinetic [4] | Inhibition of isolated Luc [5] | Inhibition of isolated SEAP reporter enzyme [6] | Papp A→B (MDR1 (P-glycoprotein)) | IC50 (mouse cGAS) | IC50 [7] | MDCK-MDR Permeability A→B [9] | half-life [10] | half-life [11] | half-life [13] | SMILES | Inhibition of TLR4 signaling (TLR4 pathway) | Inhibition of RIG-1 signaling (RIG-1 signaling) | Cytotoxicity [8] | IC50 [12]
< 200 nM | 50 to 100 nM | stabilized cGAS | 1.67 to 3.33 h | 488 µM (≈ 238 µg/mL) | 50% | appreciably | 1 to 5 ×10⁻⁶ cm/s | 8300 nM | > 20000 nM | – | – | – | – | Cc1nc(N2C[C@@H](CC(=O)Nc3ccc4ncsc4c3)C[C@H]2C(=O)O)c2oc3ccccc3c2n1 [Compound 4, (2S,4R)-4-(2-(benzo[d]thiazol-6-ylamino)-2-oxyethyl)-1-(2-methylbenzofuro[3,2-d]pyrimidin-4-yl)pyrrolidine-2-carboxylic acid] | no detectable inhibition | no detectable inhibition | no cytotoxicity | –
– | – | – | – | 542 µM (≈ 234 µg/mL) | – | – | – | – | > 20000 nM | C (C represents <1 cm/ss×10^−6) | 1.67 to 3.33 h | 1.67 to 3.33 h | – | Cc1nc(N2C[C@@H](CC(=O)Nc3ccncc3)C[C@H]2C(=O)O)c2oc3ccccc3c2n1 [Compound A, (2S,4R)-1-(2-methylbenzofuro[3,2-d]pyrimidin-4-yl)-4-(2-oxo-2-(pyridine-4-ylamino)ethyl)pyrrolidine-2-carboxylic acid, reference compound] | – | – | – | –
200 to 500 nM | 50 to 100 nM | – | > 5 h | 313 µM (≈ 150 µg/mL) | – | – | 5 to 10 ×10⁻⁶ cm/s | – | 1000 to 2500 nM | – | – | – | 1.67 to 3.33 h | Cc1nc(N2C[C@@H](CC(=O)Nc3ccc4ccccc4c3)C[C@H]2C(=O)O)c2oc3ccccc3c2n1 [Compound 31, (2S,4R)-1-(2-methylbenzofuro[3,2-d]pyrimidin-4-yl)-4-(2-(naphthalen-2-ylamino)-2-oxoethyl)pyrrolidine-2-carboxylic acid] | – | – | – | 1000 to 2500 nM
